In patent US20220251124A1, “3,5-BIS(PHENYL)-1H-HETEROARYL DERIVATIVES AS MEDICAMENTS” (INSTITUTE OF BIOTECHNOLOGY CAS, V.V.I., priority 2019, published 2022):

Assays:
Format in all cases: cell-based
cancer cell lines = assay: crystal violet assay, cancer cell lines overall; details: as seen in previous tables
Experimental: Compound 1 and a comparative compound deferasirox (DFX) were tested in their efficacy to kill/suppress proliferation of malignant breast cancer MCF7 cells representing estrogen-dependent type of breast cancer. Briefly, 10.000 cells per well were seeded in a 96-well plate on one day and the next day the tested compounds were added and incubated with the cells for 48 hrs. The cells were then fixed with 4% paraformaldehyde, stained with 0.05% crystal violet, washed with PBS, and solubilized in 1% SDS. The absorbance of the plate at 595 nm was then measured, quantifying the number of viable cells.

MDA-MB-231 [1] = assay: annexin V/PI staining, cell death induction, 48 hrs
MCF7 cells = assay: real time monitoring of cell confluence via Juli FL; details: 30 nM
Experimental: We also tested the ability of compound 1 to suppress proliferation of cancer cells by an alternative approach via the real time monitoring with a cellular analyser Juli F L. In brief, MCF7 cells were seeded in a 6-well plate the day before to reach approximately 5% confluence on the following day. Next day, the camera of the instrument was focused on a particular field with approximately 5% confluence and cells were continuously monitored, recording the confluence and visual appearance every 30 minutes for 48 hrs. Values were then expressed either as simple confluence at the end of the experiment or as slope of the line representing the confluence during a given period of time (Table 5).

MCF7 = assay: mitochondrial ROS, mitoSOX probe, flow cytometry
Experimental: (§1) The effect of compound 1 on generation of mitochondrial reactive oxygen species (ROS) was evaluated in MCF7 and MDA-MB-231 cells using a specific mitochondrially targeted probe mitoSOX (ThermoFisher Scientific) that measures mostly mitochondrial superoxide and upon binding becomes fluorescent. Cells treated with compound 1 for the described time interval were stained with the probe and then analyzed via Flow cytometry.

MDA-MB-231 [2] = assay: mitochondrial ROS, mitoSOX probe, flow cytometry
Experimental: as §1

[3] = test system: MCF7 mammospheres (cancer stem-like cells); assay: formation and growth of mammospheres, Cell Titer Glo 3D; details: 1 μM, 140 hrs
Experimental: To test the effect of compound 1 on the viability and proliferation of other resistant cancer cell types, we utilized a model of cancer stem-like cells that can be cultivated in vitro, so-called “mammospheres”. […] In this assay MCF7 spheres were dissociated to single cells/small spheres, seeded 10,000 cells per well on a special cell culture plastic that is non adherent in the Mammocult medium (Stem cell technologies) and compound 1 and compound 2 at 1 μM were added. This represents the non-cytotoxic concentration. Cells were left to grow and generate spheres for 140 hrs. The amount of cells was then measured by the Cell TiterGlo 3D reagent (Promega) that determines cell counts of 3D cultured cells as a function of their ATP content that is determined by a chemiluminescent assay.

[4] = test system: MCF7 cells stably transfected with KEIMA; assay: mitophagy induction, KEIMA reporter; details: 24 hours
Experimental: (§2) The effect of compounds 1 and 2 on mitophagy induction was assessed in MCF7 and MDA-MB-231 cells using the reporter protein KEIMA. The excitation spectra of KEIMA changes according to the mitochondrial pH, having an excitation peak at 440 nm atr pH>6 and at 586 at pH<5, with a second excitation peak remaining constant at 620 nm. Therefore, a decrease in the 440 nm/586 nm fluorescence ratio indicates mitochondrial acidification. MCF7 and MDA-MB-231 cells stably transfected with KEIMA were incubated with compound 1 for 24 hours and their fluorescence at both excitation wavelengths was measured by flow cytometry.

[5] = test system: MDA-MB-231 cells stably transfected with KEIMA; assay: mitophagy induction, KEIMA reporter; details: 24 hours
Experimental: as §2

`O=C(NCCCCCCCCCC[P+](c1ccccc1)(c1ccccc1)c1ccccc1)c1ccc(-n2nc(-c3ccccc3O)nc2-c2ccccc2O)cc1` [Compound 1, (10-(4-(3,5-bis(2-hydroxyphenyl)-1H-1,2,4-triazol-1-yl)benzamido)decyl) triphenylphosphonium Chloride] was tested, and the “efficacy against cancer cell lines” value (cancer cell lines) was 10 to 100 nM, the “dead cells (AnnexinV/PI)” value (MDA-MB-231 [1]; 5 μM) was 53.5 (23.1) % and the “dead cells (AnnexinV/PI)” value (MDA-MB-231 [1]; 5 μM, +Fe^+3 (pre-loaded with iron at a 2:1 ratio)) was 15.9 (2.7) %. The “dead cells (AnnexinV/PI)” value (MDA-MB-231 [1]; 5 μM, alone) was 61.1 (18.8) %, the “dead cells (AnnexinV/PI)” value (MDA-MB-231 [1]; 10 μM, +Fe^+3 (pre-loaded with iron at a 2:1 ratio)) was 22.4 (6.1) % and the “dead cells (AnnexinV/PI)” value (MDA-MB-231 [1]; 10 μM, alone) was 88.2 (5.8) %. The “effect on cellular proliferation” value (MCF7 cells; MCF7) was “significant inhibition of cellular proliferation”, the Final % confluence (MCF7 cells; MCF7, 48 hrs) was 15.01 (3.4) % and the “Slope 0-22 h (confluence versus time)” value (MCF7 cells; MCF7, Juli FL) was 0.258 (0.005). For the same compound, the “Slope 22-48 h (confluence versus time)” value (MCF7 cells; MCF7, Juli FL) was 0.404 (0.005), the MitoSOX mean fluorescence (MCF7; 5 min, MCF7 (0 min = 100)) was 176.5 (15.0) and the MitoSOX mean fluorescence (MCF7; 10 min, MCF7) was 177.6 (26.1). For the same compound, the MitoSOX mean fluorescence (MCF7; 15 min, MCF7) was 191.6 (47.0), the MitoSOX mean fluorescence (MCF7; 30 min, MCF7) was 230.8 (85.2) and the MitoSOX mean fluorescence (MCF7; 60 min, MCF7) was 235.9 (99.3). For the same compound, the MitoSOX mean fluorescence (MCF7; 120 min, MCF7) was 171.1 (17.6), the MitoSOX mean fluorescence (MCF7; 180 min, MCF7) was 165.4 (8.9) and the MitoSOX mean fluorescence (MCF7; 240 min, MCF7) was 207.7 (18.5). The MitoSOX mean fluorescence (MDA-MB-231 [2]; 5 min, MDA-MB-231 (0 min = 100)) was 134.7 (36.9), the MitoSOX mean fluorescence (MDA-MB-231 [2]; 10 min, MDA-MB-231) was 196.7 (41.5) and the MitoSOX mean fluorescence (MDA-MB-231 [2]; 15 min, MDA-MB-231) was 284.7 (103.2). For the same compound, the MitoSOX mean fluorescence (MDA-MB-231 [2]; 30 min, MDA-MB-231) was 379.1 (76.9), the MitoSOX mean fluorescence (MDA-MB-231 [2]; 60 min, MDA-MB-231) was 439.1 (83.0) and the MitoSOX mean fluorescence (MDA-MB-231 [2]; 120 min, MDA-MB-231) was 588.2 (14.11). The MitoSOX mean fluorescence (MDA-MB-231 [2]; 180 min, MDA-MB-231) was 560.8 (27.5), the MitoSOX mean fluorescence (MDA-MB-231 [2]; 240 min, MDA-MB-231) was 612.5 (37.5) and the “chemiluminescence ATP values normalized to control sample set as 100” value [3] was 6.61 (1.91). For the same compound, the “KEIMA 440 nm/586 nm fluorescence ratio” value ([4]; 1.5 μM) was 1.01 (0.14), the “KEIMA 440 nm/586 nm fluorescence ratio” value ([4]; 2.5 μM) was 0.99 (0.13) and the “KEIMA 440 nm/586 nm fluorescence ratio” value ([4]; 5 μM) was 0.86 (0.15). For the same compound, the “KEIMA 440 nm/586 nm fluorescence ratio” value ([4]; 10 μM) was 0.71 (0.25), the “KEIMA 440 nm/586 nm fluorescence ratio” value ([5]; 1.5 μM) was 0.81 (0.02) and the “KEIMA 440 nm/586 nm fluorescence ratio” value ([5]; 2.5 μM) was 0.81 (0.03). For the same compound, the “KEIMA 440 nm/586 nm fluorescence ratio” value ([5]; 5 μM) was 0.76 (0.10) and the “KEIMA 440 nm/586 nm fluorescence ratio” value ([5]; 10 μM) was 0.50 (0.04).
